Data from article PMC11922053 (Science Advances, 2025).
Where a SMILES comes first, the peptide text is derived from it. Bridges are numbered along the chain shown (N, C = ends). [ ]: non-standard residue; d: D form. The star is where a group is joined. Biotin = O=C1N[C@H]2[C@H](CS[C@H]2CCCCC(=O)*)N1; 2Nal = N[C@@H](Cc1ccc2ccccc2c1)C(=O)O; Gly(cPent) = N[C@H](C(=O)O)C1CCCC1; Hyp = O=C(O)[C@@H]1C[C@@H](O)CN1; Pen = CC(C)(S)[C@H](N)C(=O)O; Api = NC1(C(=O)O)CCNCC1; Ahx = NCCCCCC(=O)O

Tested on: anti-hemagglutinin antibody clone 12ca5
Assay: Biolayer interferometry
Format: binding, mouse
Details: off-target control

CC1(C)SSC[C@H](NC(=O)[C@H](CO)NC(=O)[C@@H](NC(=O)[C@H](CO)NC(=O)C2(NC(=O)[C@H](Cc3ccc4ccccc4c3)NC(=O)[C@H](CO)NC(=O)CCCCCNC(=O)[C@@H](N)CCCCNC(=O)CCCC[C@@H]3SC[C@@H]4NC(=O)N[C@@H]43)CCNCC2)C2CCCC2)C(=O)N2C[C@H](O)C[C@H]2C(=O)N[C@@H](CO)C(=O)N[C@@H](Cc2ccc(O)cc2)C(=O)N[C@@H](CO)C(=O)N[C@@H](CO)C(=O)N2C[C@H](O)C[C@H]2C(=O)N[C@@H]1C(=O)N[C@@H](CO)C(N)=O [NCBP-4 Ser Sub] (H-K(Biotin)[Ahx]S[2Nal][Api]S[Gly(cPent)]SC[Hyp]SYSS[Hyp][Pen]S-NH2; disulfide 9-16; N-terminus assumed)
nonspecific binding to 12ca5 by BLI (in words): no affinity
